Experimental findings from patent publication US9737078B2, “Compositions comprising a biological control agent and an insecticide” (priority 2012, dated 2017) are described below.

In series [1] the test system is Myzus persicae. Put plainly: Myzus persicae spray test (MYZUPE), Chinese cabbage leaf-disks. Type of series: in vivo. How it is done:
(§1) For all examples efficiencies of the compositions comprising at least one BCA and at least one specific insecticide has been determined by the “Colby-formula”: The expected efficacy of a given combination of two compounds is calculated as follows (see Colby, S. R., “Calculating Synergistic and antagonistic Responses of Herbicide Combinations”, Weeds 15, pp. 20-22, 1967):
(§2) If • X is the efficacy expressed in % mortality of the untreated control for test compound A at a concentration of m ppm respectively m g/ha, • Y is the efficacy expressed in % mortality of the untreated control for test compound B at a concentration of n ppm respectively n g/ha, • E is the efficacy expressed in % mortality of the untreated control using the mixture of A and B at m and n ppm respectively m and n g/ha, • then is E=X+Y−(X×Y/100)
(§3) If the observed insecticidal efficacy of the combination is higher than the one calculated as “E”, then the combination of the two compounds is more than additive, i.e., there is a synergistic effect.
To produce a suitable preparation of active compound, 1 part by weight of active compound is mixed with the stated amount of solvent and emulsifier, and the concentrate is diluted with emulsifier-containing water to the desired concentration. To produce a suitable preparation of a spore suspension the spores are diluted with emulsifier-containing water to the desired concentration. Chinese cabbage (Brassica pekinensis) leaf-disks infected with all instars of the green peach aphid (Myzus persicae), are sprayed with a preparation of the active ingredient of the desired concentration.
After the specified period of time, mortality in % is determined. 100% means all aphids have been killed; 0% means none of the aphids have been killed. The mortality values determined thus are recalculated using the Colby-formula (see above).

In series [2] the test system is Tetranychus urticae. Put plainly: Tetranychus urticae spray test, OP-resistant, French beans. Type of series: in vivo. How it is done: as §1, §2, §3
To produce a suitable preparation of active compound, 1 part by weight of active compound is mixed with the stated amount of solvent and emulsifier, and the concentrate is diluted with emulsifier-containing water to the desired concentration. To produce a suitable preparation of a spore suspension the spores are diluted with emulsifier-containing water to the desired concentration. French beans (Phaseolus vulgaris) which are heavily infested with all stages of the two spotted spidermite (Tetranychus urticae), are sprayed with a preparation of the active ingredient of the desired concentration.
After the specified period of time, mortality in % is determined. 100% means all spider mites have been killed and 0% means none of the spider mites have been killed. The mortality values determined thus are recalculated using the Colby-formula (see above).

Molecules are shown by their SMILES.

`Cc1cc(C)c(C2=C(OC(=O)CC(C)(C)C)C3(CCCC3)OC2=O)c(C)c1` [Spiromesifen (1222), Spiromesifen]: the “Efficacy in % after 6d (mortality)” value is listed as 70% in series [1] (20 g/ha) and 0% in series [2] (0.8 g ai/ha, after 6 d). Further, in series [2] (4 g ai/ha, after 2 d), the “Efficacy in % after 2d (mortality)” value is reported as 0%.

In general, mortality refers to the share of the test organisms that died. For the compound `CCOC(=O)OC1=C(c2cc(C)ccc2C)C(=O)N[C@]12CC[C@@H](OC)CC2` [Spirotetramate (1223), Spirotetramat], the mortality at 0.8 g/ha was found to be 0% in series [1] (Myzus persicae, 144 h, 0.8 g/ha, after 6 d, read-out: Efficacy in % after 6d (mortality)) and 0% in series [2] (Tetranychus urticae, 144 h, 0.8 g ai/ha, after 6 d, read-out: Efficacy in % after 6d (mortality)). Further, the mortality at 4 g/ha in series [1] (Myzus persicae, 144 h, 4 g/ha, after 6 d, read-out: Efficacy in % after 6d (mortality)) came to 70%. The mortality at 20 g/ha in series [2] (Tetranychus urticae, 48 h, 20 g ai/ha, after 2 d, read-out: Efficacy in % after 2d (mortality)) is 0%.
